Columns and labels:
[1] = molecular target: T1, CAMK4 (Homo sapiens, UniProt Q16566); parameters: method as in earlier work; details: Table S1; cited from earlier work
T1 construct: purchased DiscoveRx KINOMEscan (Ambit Biosciences)
T1 sequence (Q16566 1-473): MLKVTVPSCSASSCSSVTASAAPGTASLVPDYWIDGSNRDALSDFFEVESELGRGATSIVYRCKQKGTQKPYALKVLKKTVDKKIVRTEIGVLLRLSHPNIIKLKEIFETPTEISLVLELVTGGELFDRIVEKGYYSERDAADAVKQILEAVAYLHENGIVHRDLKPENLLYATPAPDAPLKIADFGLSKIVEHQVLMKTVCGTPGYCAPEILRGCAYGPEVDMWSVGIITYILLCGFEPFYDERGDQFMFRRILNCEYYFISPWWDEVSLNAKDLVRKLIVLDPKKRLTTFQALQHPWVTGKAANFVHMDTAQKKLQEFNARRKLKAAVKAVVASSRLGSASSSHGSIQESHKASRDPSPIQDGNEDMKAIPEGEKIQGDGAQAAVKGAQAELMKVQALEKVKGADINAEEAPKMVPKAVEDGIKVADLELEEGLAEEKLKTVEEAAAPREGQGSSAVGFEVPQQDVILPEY

[2] = molecular target: T2, PAK4 (Homo sapiens, UniProt O96013); parameters: method as in earlier work; details: Table S1; cited from earlier work
T2 construct: DNA tag (qPCR read-out); purchased Ambit Biosciences (KINOMEscan service)
T2 sequence (O96013 whole entry): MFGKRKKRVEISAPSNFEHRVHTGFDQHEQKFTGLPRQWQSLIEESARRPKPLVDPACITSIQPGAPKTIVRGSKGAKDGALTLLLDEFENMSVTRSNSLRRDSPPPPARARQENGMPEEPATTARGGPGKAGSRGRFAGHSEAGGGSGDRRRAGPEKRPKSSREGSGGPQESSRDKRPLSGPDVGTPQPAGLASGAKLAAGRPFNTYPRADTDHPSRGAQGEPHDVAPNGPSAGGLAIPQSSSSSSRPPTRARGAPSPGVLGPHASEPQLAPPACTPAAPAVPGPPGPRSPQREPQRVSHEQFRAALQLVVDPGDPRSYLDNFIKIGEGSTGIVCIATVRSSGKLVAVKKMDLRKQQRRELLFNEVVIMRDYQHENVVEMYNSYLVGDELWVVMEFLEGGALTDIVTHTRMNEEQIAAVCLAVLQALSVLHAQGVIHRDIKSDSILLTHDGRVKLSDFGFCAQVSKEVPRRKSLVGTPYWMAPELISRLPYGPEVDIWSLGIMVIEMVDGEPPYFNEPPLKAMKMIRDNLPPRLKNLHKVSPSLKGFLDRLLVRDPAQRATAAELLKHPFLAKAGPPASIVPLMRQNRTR

[3] = molecular target: T3, CAMK1 (Homo sapiens, UniProt Q14012); assay: KINOMEscan panel screen; assay type: binding; details: read-out: Percent Control(%)
T3 construct: purchased DiscoveRx KINOMEscan (Ambit Biosciences)
T3 sequence (Q14012 whole entry): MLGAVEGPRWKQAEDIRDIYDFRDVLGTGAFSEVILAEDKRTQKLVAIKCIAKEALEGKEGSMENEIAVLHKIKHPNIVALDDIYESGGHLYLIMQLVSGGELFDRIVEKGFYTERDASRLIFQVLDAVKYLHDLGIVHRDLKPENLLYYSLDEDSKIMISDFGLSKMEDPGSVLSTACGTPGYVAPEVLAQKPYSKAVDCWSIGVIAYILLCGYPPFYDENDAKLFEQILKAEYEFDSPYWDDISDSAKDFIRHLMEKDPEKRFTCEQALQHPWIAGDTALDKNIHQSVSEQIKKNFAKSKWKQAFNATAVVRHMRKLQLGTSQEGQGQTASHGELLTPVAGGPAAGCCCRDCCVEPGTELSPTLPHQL

[4] = molecular target: T4, LATS1 (Homo sapiens, UniProt O95835); assay: KINOMEscan panel screen; assay type: binding; details: read-out: Percent Control(%)
T4 construct: purchased DiscoveRx KINOMEscan (Ambit Biosciences)

[5] = molecular target: T5, EPHA8 (Homo sapiens, UniProt P29322); assay: KINOMEscan panel screen; assay type: binding; details: read-out: Percent Control(%)
T5 construct: purchased DiscoveRx KINOMEscan (Ambit Biosciences)

[6] = molecular target: T6, PDGFRα (Homo sapiens, UniProt P16234); assay: KINOMEscan kinase binding assay (Kd)
T6 construct: purchased Ambit Biosciences (KINOMEscan)

[7] = molecular target: T7, BUB1 (Homo sapiens, UniProt O43683); assay: KINOMEscan panel screen; assay type: binding; details: read-out: Percent Control(%)
T7 construct: purchased DiscoveRx KINOMEscan (Ambit Biosciences)

[8] = molecular target: T8, MAP3K4 (Homo sapiens, UniProt Q9Y6R4); assay: KINOMEscan panel screen; assay type: binding; details: read-out: Percent Control(%)
T8 construct: purchased DiscoveRx KINOMEscan (Ambit Biosciences)

[9] = molecular target: T9, BIKE (Homo sapiens, UniProt Q9NSY1); assay: KINOMEscan panel screen; assay type: binding; details: read-out: Percent Control(%)
T9 construct: purchased DiscoveRx KINOMEscan (Ambit Biosciences)

[10] = molecular target: T10, TLK2 (Homo sapiens, UniProt Q86UE8); assay: KINOMEscan panel screen; assay type: binding; details: read-out: Percent Control(%)
T10 construct: purchased DiscoveRx KINOMEscan (Ambit Biosciences)
T10 sequence (Q86UE8 whole entry): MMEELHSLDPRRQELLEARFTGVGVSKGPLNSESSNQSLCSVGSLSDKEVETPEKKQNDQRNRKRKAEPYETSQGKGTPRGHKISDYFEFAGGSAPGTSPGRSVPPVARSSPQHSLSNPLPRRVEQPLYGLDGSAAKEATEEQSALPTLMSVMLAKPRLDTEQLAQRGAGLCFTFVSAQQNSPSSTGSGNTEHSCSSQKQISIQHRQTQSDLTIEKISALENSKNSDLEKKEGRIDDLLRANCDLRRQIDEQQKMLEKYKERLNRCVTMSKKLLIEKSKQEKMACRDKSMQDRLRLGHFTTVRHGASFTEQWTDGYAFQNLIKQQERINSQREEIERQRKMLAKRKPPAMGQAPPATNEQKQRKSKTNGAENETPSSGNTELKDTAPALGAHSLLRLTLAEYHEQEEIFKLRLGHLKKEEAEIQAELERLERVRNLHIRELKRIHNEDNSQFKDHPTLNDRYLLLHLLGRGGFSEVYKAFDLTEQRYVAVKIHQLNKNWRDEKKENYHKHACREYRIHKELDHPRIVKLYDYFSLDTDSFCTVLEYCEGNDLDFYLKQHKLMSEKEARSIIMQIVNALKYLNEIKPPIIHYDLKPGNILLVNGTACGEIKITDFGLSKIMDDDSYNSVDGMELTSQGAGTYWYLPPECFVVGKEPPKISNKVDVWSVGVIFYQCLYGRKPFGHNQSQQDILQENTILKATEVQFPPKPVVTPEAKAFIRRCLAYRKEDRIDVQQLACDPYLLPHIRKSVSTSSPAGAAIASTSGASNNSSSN

[11] = molecular target: T11, PYK2 (Homo sapiens, UniProt Q14289); assay: KINOMEscan panel screen; assay type: binding; details: read-out: Percent Control(%)
T11 construct: purchased DiscoveRx KINOMEscan (Ambit Biosciences)

[12] = molecular target: T12, MEK2 (Homo sapiens, UniProt P36507); assay: KINOMEscan panel screen; assay type: binding; details: read-out: Percent Control(%)
T12 construct: purchased DiscoveRx KINOMEscan (Ambit Biosciences)

[13] = molecular target: T13, QSK (Homo sapiens, UniProt Q9Y2K2); assay: KINOMEscan panel screen; assay type: binding; details: read-out: Percent Control(%)
T13 construct: purchased DiscoveRx KINOMEscan (Ambit Biosciences)

[14] = molecular target: T14, ABL1(E255K)-phosphorylated (Homo sapiens, UniProt P00519, E255K); assay: KINOMEscan panel screen; assay type: binding; details: read-out: Percent Control(%)
T14 construct: purchased DiscoveRx KINOMEscan (Ambit Biosciences)

[15] = molecular target: ROCK1 (Homo sapiens, UniProt Q13464); assay: KINOMEscan kinase binding assay (Kd)
[16] = molecular target: T15, ABL2 (Homo sapiens, UniProt P42684); assay: KINOMEscan panel screen; assay type: binding; details: read-out: Percent Control(%)
T15 construct: purchased DiscoveRx KINOMEscan (Ambit Biosciences)

[17] = tested on: MV4-11 cells; assay: Apoptosis assay (AnnexinV/PI staining); assay type: cell-based, human; details: 3 nM
Procedure: PI staining was used to detect the cell cycle status. […] The induction of apoptosis following treatment of MV4-11 cells was examined by AnnexinV/PI staining assays.
Flow cytometry was used for cell cycle and apoptosis assays. MV4-11 cells were treated with SKLB-677 for 24 h, and then the cells were harvested and washed with PBS. Cell Cycle and Apoptosis Analysis Kit (Beyotime) was used for cell cycle analysis and the Annexin V-FITC & PI Cell Apoptosis Analysis Kit (KeyGENE BioTECH) was used for apoptosis assays. The data was analyzed using FLOWJO software (V7.6.5).
Figure 2 SKLB-677 inhibited FLT3 activation and induced cell cycle arrest and apoptosis. (a) MV4-11 cells were treated with various concentrations of SKLB-677 or 0.1% DMSO for 1 h. The phosphorylation levels of FLT3 and downstream signal proteins were assessed using antibodies against total FLT3 (FLT3), phosphorylated Y589/591 FLT3 (p-FLT3), total STAT5 (STAT5), phosphorylated Y694 STAT5 (p-STAT5), total p44/42 MAPK (Erk1/2), and phosphorylated Y202/204 p44/42 MAPK (p-Erk1/2). β-actin was used as a loading control. (b) Primary PBMCs isolated from AML patients (FLT3-ITD positive) were treated with various concentrations of SKLB-677 or 0.1% DMSO for 6 h. The phosphorylation levels of FLT3 and downstream signal proteins were detected used the same method as that in panel a. […]

[18] = tested on: PLC/PRF/5; assay: MTT cell viability assay; details: Homo sapiens, PLC-PRF-5, 72 h
[19] = molecular target: T16, MERTK (Homo sapiens, UniProt Q12866); assay: KINOMEscan panel screen; assay type: binding; details: read-out: Percent Control(%)
T16 construct: purchased DiscoveRx KINOMEscan (Ambit Biosciences)
T16 sequence (Q12866 21-999): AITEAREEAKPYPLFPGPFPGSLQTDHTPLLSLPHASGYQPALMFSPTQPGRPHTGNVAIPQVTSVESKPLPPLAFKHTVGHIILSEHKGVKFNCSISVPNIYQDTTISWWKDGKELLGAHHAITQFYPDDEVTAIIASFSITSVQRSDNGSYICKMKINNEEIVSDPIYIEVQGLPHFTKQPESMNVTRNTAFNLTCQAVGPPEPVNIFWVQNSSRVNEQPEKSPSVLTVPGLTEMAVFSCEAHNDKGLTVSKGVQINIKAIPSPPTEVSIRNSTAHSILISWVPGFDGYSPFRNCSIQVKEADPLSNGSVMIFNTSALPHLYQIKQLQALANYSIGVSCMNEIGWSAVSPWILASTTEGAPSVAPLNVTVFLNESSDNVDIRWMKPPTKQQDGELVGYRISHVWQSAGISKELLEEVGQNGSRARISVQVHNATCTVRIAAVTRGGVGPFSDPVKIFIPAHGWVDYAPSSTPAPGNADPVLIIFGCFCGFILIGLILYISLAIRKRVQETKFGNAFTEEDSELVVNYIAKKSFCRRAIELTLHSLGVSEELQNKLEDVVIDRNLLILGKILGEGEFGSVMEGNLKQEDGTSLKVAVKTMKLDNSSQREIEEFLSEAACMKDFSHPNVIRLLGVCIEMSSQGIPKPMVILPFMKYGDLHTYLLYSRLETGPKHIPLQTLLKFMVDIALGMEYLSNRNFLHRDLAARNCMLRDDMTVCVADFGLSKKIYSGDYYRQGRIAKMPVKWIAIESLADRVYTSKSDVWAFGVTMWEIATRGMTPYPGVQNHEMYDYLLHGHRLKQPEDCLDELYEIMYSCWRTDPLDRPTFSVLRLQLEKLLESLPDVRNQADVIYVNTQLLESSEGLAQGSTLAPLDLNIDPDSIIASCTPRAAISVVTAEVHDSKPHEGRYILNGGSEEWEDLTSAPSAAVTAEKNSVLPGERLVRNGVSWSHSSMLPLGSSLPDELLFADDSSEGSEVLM

[20] = molecular target: T17, MELK (Homo sapiens, UniProt Q14680); assay: KINOMEscan panel screen; assay type: binding; details: read-out: Percent Control(%)
T17 construct: purchased DiscoveRx KINOMEscan (Ambit Biosciences)

[21] = molecular target: T18, PAK3 (Homo sapiens, UniProt O75914); assay: KINOMEscan panel screen; assay type: binding; details: read-out: Percent Control(%)
T18 construct: purchased DiscoveRx KINOMEscan (Ambit Biosciences)

[22] = molecular target: T19, DDR1 (Homo sapiens, UniProt Q08345); assay: KINOMEscan panel screen; assay type: binding; details: read-out: Percent Control(%)
T19 construct: purchased DiscoveRx KINOMEscan (Ambit Biosciences)
T19 sequence (Q08345 19-913): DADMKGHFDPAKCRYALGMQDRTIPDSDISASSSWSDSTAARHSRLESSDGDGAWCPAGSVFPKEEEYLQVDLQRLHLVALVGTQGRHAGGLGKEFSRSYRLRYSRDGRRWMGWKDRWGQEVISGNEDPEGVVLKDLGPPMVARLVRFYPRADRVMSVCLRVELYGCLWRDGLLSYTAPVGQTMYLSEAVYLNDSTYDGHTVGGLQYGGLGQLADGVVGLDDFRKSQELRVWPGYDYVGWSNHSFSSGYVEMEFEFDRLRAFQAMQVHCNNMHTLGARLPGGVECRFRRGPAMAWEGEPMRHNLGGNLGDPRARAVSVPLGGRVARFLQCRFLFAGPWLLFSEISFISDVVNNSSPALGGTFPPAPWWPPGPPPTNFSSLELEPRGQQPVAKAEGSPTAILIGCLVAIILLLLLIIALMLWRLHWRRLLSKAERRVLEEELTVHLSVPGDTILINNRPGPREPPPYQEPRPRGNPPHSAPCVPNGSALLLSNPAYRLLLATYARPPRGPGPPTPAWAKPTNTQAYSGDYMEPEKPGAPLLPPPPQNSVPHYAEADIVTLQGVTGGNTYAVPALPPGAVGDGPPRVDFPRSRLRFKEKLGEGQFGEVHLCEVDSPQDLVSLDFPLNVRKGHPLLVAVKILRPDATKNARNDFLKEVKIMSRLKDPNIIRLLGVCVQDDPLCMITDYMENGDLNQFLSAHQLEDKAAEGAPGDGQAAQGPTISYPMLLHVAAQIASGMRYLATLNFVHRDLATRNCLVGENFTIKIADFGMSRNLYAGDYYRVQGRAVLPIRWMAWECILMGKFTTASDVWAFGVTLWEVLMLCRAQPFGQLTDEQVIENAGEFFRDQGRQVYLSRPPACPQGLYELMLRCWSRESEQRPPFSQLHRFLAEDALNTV

[23] = molecular target: T20, HIPK3 (Homo sapiens, UniProt Q9H422); assay: KINOMEscan panel screen; assay type: binding; details: read-out: Percent Control(%)
T20 construct: purchased DiscoveRx KINOMEscan (Ambit Biosciences)
T20 sequence (Q9H422 whole entry): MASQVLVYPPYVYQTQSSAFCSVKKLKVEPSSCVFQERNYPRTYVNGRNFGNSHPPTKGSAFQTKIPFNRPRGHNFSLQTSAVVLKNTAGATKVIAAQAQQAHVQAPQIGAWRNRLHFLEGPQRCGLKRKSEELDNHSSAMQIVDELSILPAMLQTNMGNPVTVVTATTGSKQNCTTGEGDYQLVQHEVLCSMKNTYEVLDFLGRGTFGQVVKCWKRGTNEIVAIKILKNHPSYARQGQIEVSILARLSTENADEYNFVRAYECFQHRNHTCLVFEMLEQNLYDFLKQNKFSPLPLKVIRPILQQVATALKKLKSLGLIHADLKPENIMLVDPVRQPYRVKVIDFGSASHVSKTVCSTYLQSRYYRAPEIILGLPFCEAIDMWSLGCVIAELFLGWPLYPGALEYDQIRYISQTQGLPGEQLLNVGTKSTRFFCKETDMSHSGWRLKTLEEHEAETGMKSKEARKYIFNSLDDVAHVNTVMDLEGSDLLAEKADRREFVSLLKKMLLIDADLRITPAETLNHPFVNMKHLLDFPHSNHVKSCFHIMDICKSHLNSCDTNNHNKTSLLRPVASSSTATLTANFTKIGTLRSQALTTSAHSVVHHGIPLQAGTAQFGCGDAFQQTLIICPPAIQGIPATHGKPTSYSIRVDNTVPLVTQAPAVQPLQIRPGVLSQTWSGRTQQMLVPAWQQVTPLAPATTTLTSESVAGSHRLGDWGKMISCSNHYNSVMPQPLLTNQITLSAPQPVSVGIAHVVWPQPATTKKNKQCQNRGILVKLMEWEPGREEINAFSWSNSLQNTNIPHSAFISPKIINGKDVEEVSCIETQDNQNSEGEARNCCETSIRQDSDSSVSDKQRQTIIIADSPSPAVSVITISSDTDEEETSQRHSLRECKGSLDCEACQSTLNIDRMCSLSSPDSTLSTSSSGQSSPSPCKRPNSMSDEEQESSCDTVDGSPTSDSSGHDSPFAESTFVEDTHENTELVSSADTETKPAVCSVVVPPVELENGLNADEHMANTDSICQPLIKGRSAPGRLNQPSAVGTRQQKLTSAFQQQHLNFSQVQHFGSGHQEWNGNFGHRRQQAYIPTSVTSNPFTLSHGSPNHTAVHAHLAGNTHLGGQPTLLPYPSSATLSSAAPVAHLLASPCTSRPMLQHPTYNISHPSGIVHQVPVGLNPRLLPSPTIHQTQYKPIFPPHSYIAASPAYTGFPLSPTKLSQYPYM

[24] = molecular target: T21, EGFR(L858R) (Homo sapiens, UniProt P00533, L858R); assay: KINOMEscan panel screen; assay type: binding; details: read-out: Percent Control(%)
T21 construct: purchased DiscoveRx KINOMEscan (Ambit Biosciences)

SMILES: O=C(Nc1ccc(Oc2ncnc3[nH]ncc23)cc1)Nc1ccc(Cl)c(C(F)(F)F)c1 [Compound 1, 1-(4-(1H-pyrazolo[3,4-d]pyrimidin-4-yloxy)phenyl)-3-(4-chloro-3-(trifluoromethyl)phenyl)urea]
- IC50 [1]: > 10 µM
- IC50 [2]: > 10 µM

SMILES: CC(C)(C)c1cc(NC(=O)Nc2ccc(Oc3ncnc4[nH]ncc34)c(F)c2)no1 [SKLB-677, 1-(4-(1H-pyrazolo[3,4-d]pyrimidin-4-yloxy)-3-fluorophenyl)-3-(5-tert-butylisoxazol-3-yl)urea]
- remaining binding at 10 µM [3]: 21%
- remaining binding at 10 µM [4]: 47%
- remaining binding at 10 µM [5]: 0.1%
- Kd [6]: 0.012 µM
- remaining binding at 10 µM [7]: 66%
- remaining binding at 10 µM [8]: 69%
- remaining binding at 10 µM [9]: 89%
- remaining binding at 10 µM [10]: 64%
- remaining binding at 10 µM [11]: 64%
- remaining binding at 10 µM [12]: 5.9%
- remaining binding at 10 µM [13]: 91%
- remaining binding at 10 µM [14]: 11%
- Kd [15]: > 10 µM
- remaining binding at 10 µM [16]: 13%
- apoptosis of AML cells [17]: about 50%
- IC50 [18]: > 10 µM
- remaining binding at 10 µM [19]: 0%
- remaining binding at 10 µM [20]: 56%
- remaining binding at 10 µM [21]: 6.4%
- remaining binding at 10 µM [22]: 3.6%
- remaining binding at 10 µM [23]: 1.2%
- remaining binding at 10 µM [24]: 29%

From article PMC4620497 (Scientific Reports, 2015)
